Nc1ccc([N+](=O)[O-])cc1[N+](=O)[O-]
solubility (mole fraction)
Settings	in acetone	in acetonitrile	in ethanol	in ethyl acetate	in isopropanol	in methanol	in n-butanol	in n-propanol	in toluene
278.15 K	0.0281	0.00772	0.00126	0.0116	0.000854	0.00126	0.00144	0.00103	0.00033
280.65 K	0.0304	0.00829	0.0014	0.0127	0.00097	0.00138	0.00154	0.00116	0.000383
283.15 K	0.0328	0.00893	0.00154	0.0138	0.0011	0.00156	0.00172	0.00131	0.000443
285.65 K	0.0355	0.0098	0.00173	0.0151	0.00125	0.00173	0.00193	0.00146	0.000511
288.15 K	0.0381	0.0108	0.00193	0.0163	0.00142	0.00192	0.00216	0.00163	0.000573
290.65 K	0.0407	0.0118	0.00211	0.0177	0.00159	0.00212	0.00243	0.0018	0.000642
293.15 K	0.0437	0.0127	0.00232	0.0191	0.00177	0.00232	0.00271	0.00198	0.000724
295.65 K	0.0467	0.0138	0.00254	0.0205	0.002	0.00253	0.00299	0.00217	0.000814
298.15 K	0.0497	0.0149	0.00278	0.0221	0.00227	0.00276	0.00329	0.00238	0.000917
300.65 K	0.0531	0.0161	0.00304	0.0238	0.00253	0.00301	0.00365	0.00262	0.00102
303.15 K	0.0565	0.0174	0.00331	0.0257	0.00281	0.00327	0.00406	0.00287	0.00114
305.65 K	0.0604	0.0188	0.00359	0.0278	0.00313	0.00356	0.00447	0.00314	0.00128
308.15 K	0.0642	0.0203	0.00391	0.0301	0.00346	0.00386	0.00494	0.00346	0.00142
310.65 K	0.0682	0.0216	0.00428	0.0324	0.00383	0.00421	0.00543	0.0038	0.00158
313.15 K	0.0723	0.023	0.00468	0.035	0.00426	0.00456	0.00589	0.00413	0.00175
315.65 K	0.0769	0.0247	0.00511	0.0374	0.00469	0.00493	0.00646	0.00452	0.00193
318.15 K	0.0815	0.0264	0.00555	0.0403	0.00522	0.00537	0.00712	0.00493	0.00217

— BigSolDB 2.1
